# In patent publication US10604476B2, “Fluorinated amide derivatives and their uses as therapeutic agents” (Trillium Therapeutics Inc., priority 2015, dated 2020):
# Columns and labels:
# Format in all cases: in vivo
# [1] = test system: fully kindled (stage 5) seizures, amygdala kindled rat; test: Amygdala kindled rat model; details: <60 mg/kg i.p.
# Description: Amygdala kindling model is an animal model for complex partial seizures, which is the most common type of epilepsy in adults and is often drug resistant.
# [2] = test system: LTG-resistant amygdala kindled seizures; test: Lamotrigine (LTG) resistant amygdala kindled seizure rat model; details: for Duration (sec) ± SD (afterdischarge) / N/F, number of animals active over the number tested / Seizure Score ± SEM: 0.25 hr
# Description: The LTG-resistant amygdala kindled rat model is useful for not only identifying compounds effective against secondarily generalized partial seizures, but also allows for the differentiation of compounds that may be effective in therapy-resistant patients. […] Conversely, valproate can both prevent kindling development and block the expression of fully kindled seizures. The addition of the traditional ASDs, carbamazepine or lamotrigine, during the development of kindled seizures in this model will ultimately impair the effectiveness of lamotrigine against a fully expressed kindled seizure. […] This model may serve as a means to identify compounds which may be effective against therapy-resistant seizures. Anesthetized male Sprague-Dawley rats (250-300 g) are surgically implanted with an electrode into the left amygdala. Animals are then allowed to recover for one week before commencing kindling. The kindling procedure consists of delivering a 200 μAmp stimulus (suprathreshold) daily until all animals in both treatment groups display consistent Stage 4 or 5 seizures. One week after all animals are kindled, the animals receive a challenge dose of LTG (30 mg/kg, i.p.) before being stimulated to confirm the LTG sensitivity of the vehicle-treated control animals, as well as the LTG-resistance of the LTG-treated group. The animals are then allowed a washout of 3 days. On day 3 of the washout, the animals are pre-stimulated to ensure recovery of the fully kindled seizure. On day 4, kindled rats are challenged with a dose of an investigational agent (the dose that produced minimal motor impairment) and then challenged with the kindling stimulus at the predetermined TPE of the investigational drug. […] For this study, the ability of a candidate substance to reduce afterdischarge duration (ADD) and behavioral seizure scores (BSS) is quantitated by varying the dose between 0 and 100% effect. Unlike other acute seizure tests conducted by the ETSP, each kindled rat is allowed at least 3-4 days between tests to “washout” any investigational compound after testing. The average seizure scores±S.E.M. and afterdischarge duration (ADD) are noted, as are the number of animals protected from seizure (defined as a Racine score<3) over the number of animals tested.
# The following procedure is used for surgical implantation of Electrodes. Male Spraque-Dawey rats are anesthetized using 1-3% isoflurane or a Ketamine/Xylazine cocktail. Ketamine is provided as 100 mg/ml solution, and dose 50 mg/kg given i.p. Xylazine is provided as 100 mg/ml solution, and dose 20 mg/kg given i.p. Mix the two solutions together in one syringe and administer i.p as one injection. Rat is monitored through surgery. If the rat is responsive to a tail pinch administer half the dose of Ketamine/xylazine or increase the isoflurane percentage. Administer buprenorphine at 0.02 mg/kg s.c. for pain management. An electric razor is used to shave the surface of the head. The rat is placed on an external heat source on the stereotaxic apparatus such that the height of the incisor bar and the positioning of the ear bars ensure consistency with the reference atlas. The entire scalp is scrubbed with betadine (3×) and wiped with alcohol. Ophthalmic ointment is applied to each eye. All instruments are sterilized via autoclave before beginning surgery. During surgery instruments are placed on a sterile drape. For subsequent surgeries on the same day, instruments can be placed into the hot bead sterilizer between surgeries. Stainless steel screws and electrodes are sterilized in 70% alcohol and place on a sterile drape. A sterile scalpel blade is used to make a midline scalp incision beginning from a point even with the eyes and extending back to and imaginary line connecting the ear. The fascia should be gently split and pulled away by from the scalp. The incision can be held open using retractors/forceps. […]
# [3] = test system: Metrazol seizure threshold; test: Timed intravenous infusion of Metrazol (iv Met) in mouse; details: FIG. 1, p<0.001
# Method: The iv-Met test provides a measure of a test substance's ability to raise or lower seizure threshold. Two doses of the test compound are usually employed in this test, the MES ED50 and the TD50 determined following ip quantification testing in mice. Randomly selected mice are injected intraperitoneally 2 minutes apart with either the vehicle or the two test drug doses, maintaining the same order of dosing until 30 mice have been injected. At the previously determined TPE, 0.5% heparinized Metrazol solution is infused at a constant rate of 0.34 ml/min into a lateral tail vein of an unrestrained mouse. Infusion is by means of a Sage syringe pump (model 341 A) and a 10 ml B-D plastic syringe connected to a length of No 20 P.E. tubing. A 27 gauge stainless steel needle with the hub removed is connected to the tubing and inserted into a vein, bevel side up and secured to the tail by a narrow piece of adhesive tape. For the placement of the needle, the mouse is restrained in a cone shaped device with only the tail exposed. […] The time in seconds from the start of the infusion to the appearance of the “first twitch” and the onset of sustained clonus is recorded. The times to each endpoint are converted to mg/kg of Metrazol for each mouse as follows: The mean and standard error for each of the 3 groups and the significance of the difference between the test groups and the control are calculated.
structure (smiles),measurement,setting,value
"C[C@@H](Oc1cc(Cl)cc(C(F)(F)F)c1)C(N)=O [I(D), (2R)-2-[3-chloro-5-(trifluoromethyl)-phenoxy]propanamide]",suppression of fully kindled (stage 5) seizures compared to vehicle controls,[1],dose related suppression
same,Duration (sec) ± SD (afterdischarge),[2]; 10 mg/kg i.p.,158.5 ± 21.5 s
same,"N/F, number of animals active over the number tested",[2]; 10 mg/kg i.p.,0/2
same,Seizure Score ± SEM,[2]; 10 mg/kg i.p.,5 ± 0.0
same,Duration (sec) ± SD (afterdischarge),[2]; 25 mg/kg i.p.,71.0 ± 13.61 s
same,"N/F, number of animals active over the number tested",[2]; 25 mg/kg i.p.,1/5
same,Seizure Score ± SEM,[2]; 25 mg/kg i.p.,4.4 ± 0.6
same,Duration (sec) ± SD (afterdischarge),[2]; 37.5 mg/kg i.p.,54.2 ± 10.38 s
same,"N/F, number of animals active over the number tested",[2]; 37.5 mg/kg i.p.,3/5
same,Seizure Score ± SEM,[2]; 37.5 mg/kg i.p.,3.2 ± 0.75
same,Duration (sec) ± SD (afterdischarge),[2]; 50 mg/kg i.p.,71.0 ± 13.61 s
same,"N/F, number of animals active over the number tested",[2]; 50 mg/kg i.p.,6/6
same,Seizure Score ± SEM,[2]; 50 mg/kg i.p.,0.83 ± 0.17
same,"EC50, reduction of seizure score (seizure severity)","[2]; i.p., LTG-resistant kindled rats",32.55 ± 3.58 mg/kg
same,"seizure threshold (time to twitch, time to clonus, total dose of pentylenetetrazol to first twitch or clonus)",[3],elevate seizure threshold
